Test results as given in ChEMBL document CHEMBL6182944, “Substrate Specificity of the Organic Cation Transporters MATE1 and MATE2K and Functional Overlap with OCT1 and OCT2” (J Med Chem, 2025).

Key:
MATE1 = target: T1, MATE1 (Homo sapiens, UniProt Q96FL8); assay: in vitro
T1 sequence (Q96FL8 whole entry): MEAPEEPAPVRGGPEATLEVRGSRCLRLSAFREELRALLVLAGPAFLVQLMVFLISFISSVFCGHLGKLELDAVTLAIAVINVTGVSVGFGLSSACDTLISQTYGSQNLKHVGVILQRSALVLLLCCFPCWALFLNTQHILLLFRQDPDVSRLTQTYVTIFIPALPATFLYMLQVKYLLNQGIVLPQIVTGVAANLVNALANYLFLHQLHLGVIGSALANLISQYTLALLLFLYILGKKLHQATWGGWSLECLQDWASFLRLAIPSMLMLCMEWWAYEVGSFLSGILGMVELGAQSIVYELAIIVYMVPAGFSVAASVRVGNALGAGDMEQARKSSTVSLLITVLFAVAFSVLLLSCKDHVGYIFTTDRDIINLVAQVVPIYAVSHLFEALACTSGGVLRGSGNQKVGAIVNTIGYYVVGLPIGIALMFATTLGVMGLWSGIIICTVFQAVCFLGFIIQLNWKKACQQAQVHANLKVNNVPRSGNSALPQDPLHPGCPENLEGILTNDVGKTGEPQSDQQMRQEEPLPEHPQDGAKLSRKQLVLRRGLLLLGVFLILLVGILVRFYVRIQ

MATE2-K = target: T2, MATE2-K (Homo sapiens, UniProt Q86VL8); assay: in vitro
T2 sequence (Q86VL8 whole entry): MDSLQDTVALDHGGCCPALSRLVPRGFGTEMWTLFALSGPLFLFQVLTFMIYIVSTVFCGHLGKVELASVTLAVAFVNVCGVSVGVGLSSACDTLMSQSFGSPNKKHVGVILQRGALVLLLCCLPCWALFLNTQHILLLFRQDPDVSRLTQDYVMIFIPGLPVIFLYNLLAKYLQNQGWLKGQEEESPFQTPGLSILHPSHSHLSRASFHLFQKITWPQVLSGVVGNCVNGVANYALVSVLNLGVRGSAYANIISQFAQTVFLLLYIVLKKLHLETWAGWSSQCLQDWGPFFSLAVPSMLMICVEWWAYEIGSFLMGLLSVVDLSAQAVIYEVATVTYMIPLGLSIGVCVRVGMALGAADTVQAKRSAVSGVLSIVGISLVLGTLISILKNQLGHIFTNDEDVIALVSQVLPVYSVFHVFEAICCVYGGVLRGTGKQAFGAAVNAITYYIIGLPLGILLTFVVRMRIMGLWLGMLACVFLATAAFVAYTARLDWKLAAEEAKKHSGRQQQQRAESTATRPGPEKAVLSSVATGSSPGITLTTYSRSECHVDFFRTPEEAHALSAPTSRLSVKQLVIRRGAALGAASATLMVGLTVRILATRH

[1] = HEK293 cells expressing MATE2-K

SMILES | uptake ratio at 1 min, 2.5 µM (MATE1; HEK293 cells expressing MATE1) | uptake ratio at 1 min, 2.5 µM (MATE2-K; [1]) | uptake ratio at 1 min, 2.5 µM (MATE1; hek293) | uptake ratio at 1 min, 2.5 µM (MATE2-K; hek293)
CNC(=O)c1cccnc1 [NICOTINYL METHYLAMIDE] | > 2 | > 2 |  | 
O=C(O[C@H]1C[C@H]2CC[C@@H](C1)[N+]21CCCC1)C(O)(c1ccccc1)c1ccccc1 [TROSPIUM] | > 2 | < 2 |  | 
NCCc1cccc(O)c1 | > 2 | < 2 |  | 
NCCCC(=O)O [GAMMA-AMINOBUTYRIC ACID] | < 2 | < 2 |  | 
CC[N+](C)(C)c1cccc(O)c1 [EDROPHONIUM] | > 2 | > 2 |  | 
C=CCN1CCCC1CNC(=O)c1cc2[nH]nnc2cc1OC (stereo unspecified) [ALIZAPRIDE] | > 2 | > 2 |  | 
Cc1ncc(C[n+]2cccc(CCO)c2C)c(N)n1 | > 2 | > 2 |  | 
CC(=O)c1cc2cccc(OCC(O)CNC(C)C)c2o1 (stereo unspecified) [BEFUNOLOL] | < 2 | < 2 |  | 
N=C(N)NCCC[C@H](NC(=O)c1ccc2ccccc2c1O)C(=O)N1CCC[C@H]1C(N)=O | > 2 | < 2 |  | 
CN(C)CCc1c[nH]c2ccc(Cn3cncn3)cc12 [RIZATRIPTAN] | > 2 | > 2 |  | 
CCNCC(O)c1cccc(O)c1 (stereo unspecified) [ETILEFRINE] | > 2 | > 2 |  | 
COC(=O)[C@@H]1[C@H]2CC[C@@H](C[C@@H]1O)N2C | < 2 | < 2 |  | 
CN(C)CCc1c[nH]c2ccc(CS(=O)(=O)N3CCCC3)cc12 [ALMOTRIPTAN] | > 2 | > 2 |  | 
COc1cccc2c1C(=O)c1c(O)c3c(c(O)c1C2=O)C[C@@](O)(C(C)=O)C[C@@H]3O[C@H]1C[C@H](N)[C@H](O)[C@H](C)O1 [DAUNORUBICIN] | < 2 | < 2 |  | 
Cc1cc(O)cc(C)c1OCC(C)N (stereo unspecified) | < 2 | < 2 |  | 
CN/C(=N/CCSCc1nc[nH]c1C)NC#N [CIMETIDINE] |  |  | > 2 | > 2
Nc1ccncc1N [AMIFAMPRIDINE] | > 2 | > 2 |  | 
C[N+]12CCC(CC1)C(OC(=O)C(O)(c1ccccc1)c1ccccc1)C2 (stereo unspecified) | > 2 | < 2 |  | 
CC(C)NCC(O)COc1ccc(CCOCC2CC2)cc1 (stereo unspecified) [BETAXOLOL] |  |  | < 2 | < 2
C[C@H](NCCc1ccc(O)cc1)[C@H](O)c1ccc(O)cc1 |  |  | > 2 | > 2
COc1ccc2[nH]c3c(c2c1)CCNC3 | < 2 | < 2 |  | 
O=c1ncccn1[C@@H]1O[C@H](CO)[C@@H](O)[C@H]1O [ZEBULARINE] | < 2 | < 2 |  | 
C1CCN2C[C@H]3C[C@H](CN4CCCC[C@@H]34)[C@H]2C1 | > 2 | > 2 |  | 
O=C(O[C@H]1C[N+]2(CCCOc3ccccc3)CCC1CC2)C(O)(c1cccs1)c1cccs1 | > 2 | < 2 |  | 
CNC(=C[N+](=O)[O-])NCCSCc1csc(CN(C)C)n1 [NIZATIDINE] | > 2 | > 2 |  | 
CNCCc1ccc(O)cc1 | > 2 | < 2 |  | 
NC(=O)C1(N2CCCCC2)CCN(CCCC(=O)c2ccc(F)cc2)CC1 [PIPAMPERONE] | < 2 | < 2 |  | 

SMILES | uptake ratio at 1 min, 2.5 µM (MATE1; HEK293 cells expressing MATE1) | uptake ratio at 1 min, 2.5 µM (MATE2-K; [1]) | uptake ratio at 1 min, 2.5 µM (MATE1; hek293) | uptake ratio at 1 min, 2.5 µM (MATE2-K; hek293)
CNC(C)Cc1ccc2c(c1)OCO2 (stereo unspecified) [MIDOMAFETAMINE] | < 2 | < 2 |  | 
COc1ccc2[nH]cc(C[C@H](N)C(=O)O)c2c1 | < 2 | < 2 |  | 
CC(=O)Nc1ccc(OCC(O)CNC(C)C)cc1 (stereo unspecified) [PRACTOLOL] |  |  | > 2 | > 2
O=C1CCc2ccc(OCCCCN3CCN(c4cccc(Cl)c4Cl)CC3)cc2N1 [ARIPIPRAZOLE] |  |  | < 2 | < 2
CNCc1ccc(-c2[nH]c3cc(F)cc4c3c2CCNC4=O)cc1 [RUCAPARIB] | > 2 | > 2 |  | 
CC[C@@]1(O)C(=O)OCc2c1cc1n(c2=O)Cc2cc3c(CN(C)C)c(O)ccc3nc2-1 [TOPOTECAN] | > 2 | > 2 |  | 
CN1CCN(CC(=O)N2c3ccccc3C(=O)Nc3cccnc32)CC1 [PIRENZEPINE] | > 2 | < 2 |  | 
CNCCc1ccccn1 [BETAHISTINE] |  |  | < 2 | < 2
N=C(N)NCc1cccc(I)c1 [IOBENGUANE] | > 2 | > 2 |  | 
O=C(C[S+]([O-])Cc1ccco1)NC/C=C\COc1cc(CN2CCCCC2)ccn1 (stereo unspecified) [LAFUTIDINE] | < 2 | < 2 |  | 
N[C@@H](CC(=O)N1CCn2c(nnc2C(F)(F)F)C1)Cc1cc(F)c(F)cc1F [SITAGLIPTIN] | > 2 | > 2 |  | 
Nc1ccn([C@@H]2O[C@H](CO)[C@@H](O)C2(F)F)c(=O)n1 [GEMCITABINE] | < 2 | < 2 |  | 
Clc1ccc(COC(Cn2ccnc2)c2ccc(Cl)cc2Cl)c(Cl)c1 (stereo unspecified) [MICONAZOLE] | < 2 | < 2 |  | 
CC(C)(C)NCC(O)COc1cccc2c1CC(O)C(O)C2 (stereo unspecified) [NADOLOL] | > 2 | > 2 |  | 
CCC(Cc1ccc2c(c1)OCO2)NC (stereo unspecified) | < 2 | < 2 |  | 
COC(=O)CCc1ccc(OCC(O)CNC(C)C)cc1 (stereo unspecified) [ESMOLOL] | < 2 | < 2 |  | 
CNCc1ccc(CSCCN/C(=C/[N+](=O)[O-])NC)o1 | > 2 | > 2 |  | 
C[C@@H]1Cc2c(Cl)cc(C(=O)N[C@@H](Cc3ccccc3)C(=O)O)c(O)c2C(=O)O1 [3R14S-OCHRATOXIN A] | > 2 | < 2 |  | 
CNC(C)Cc1ccc(OC)cc1 (stereo unspecified) | < 2 | < 2 |  | 
Nc1nc(CC(=O)Nc2ccc(CCNC[C@H](O)c3ccccc3)cc2)cs1 [MIRABEGRON] | > 2 | > 2 |  | 
OC(CNCC(O)C1CCc2cc(F)ccc2O1)C1CCc2cc(F)ccc2O1 (stereo unspecified) [NEBIVOLOL] | < 2 | < 2 |  | 
CC(C)NCC(O)c1cc(O)cc(O)c1 (stereo unspecified) [METAPROTERENOL] | > 2 | > 2 |  | 
N=C(N)NCCCCN [AGMATINE] | < 2 | < 2 |  | 
CC(C)(C)NCC(O)c1ccc(O)c(O)c1 (stereo unspecified) [COLTEROL] | > 2 | > 2 |  | 
CCCCNC(=N)NC(=N)N [BUFORMIN] |  |  | > 2 | > 2
CCC1(c2ccccc2)C(=O)NC(=O)NC1=O [PHENOBARBITAL] | < 2 | < 2 |  | 
